From US10189840B2, “Substituted tricyclic heterocyclic compounds” (BRISTOL-MYERS SQUIBB COMPANY, priority 2015, dated 2019)

biological target: TNFα (Homo sapiens (Human), UniProt P01375); assay: TNF induced HEK-Blue assay; type: cell-based; conditions: TNFα 0.5 ng/ml; HEK-Blue-CD40L cells, NF-κB-driven secreted alkaline phosphatase reporter; 18 h
Protocol: Test compounds serially diluted in DMSO were plated in an assay plate (Labcyte, Cat. #LP-0200) at final concentrations ranging from 0.004 μM to 25 μM. TNFα (final concentration 0.5 ng/ml) or CD40L (final concentration 30 ng/ml) in assay buffer [DMEM, 4.5 g/l glucose (Gibco, Cat. 21063-029), 10% FBS (Sigma, F4135), 1% Penicillin-Streptomycin (Gibco, Cat. 15140-122), 1% Anti-Anti (Gibco, Cat. 15240-112) and 2 mM L-glutamine (Gibco, Cat. 25030-081)] was then added to the assay plate. After a 30 minute pre-incubation at 37° C. and 5% CO2, HEK-Blue-CD40L cells (InvivoGen, Cat. Code hkb-cd40) containing a NF-κB-driven secreted alkaline phosphatase reporter gene were seeded into the assay plate at a density of 20,000 cells per well. This plate was then incubated for 18 h at 37° C. and 5% CO2. Secreted alkaline phosphatase expression was measured using QUANTI-Blue (InvivoGen, Cat. Code rep-qb1) according to manufacturer's specifications and the assay plate was read on a PerkinElmer Envision at 620 nm.
Inhibition data for the test compound over a range of concentrations was plotted as percentage inhibition of the test compound (100%=maximum inhibition). IC50 values were determined after correcting for background [(sample read−mean of low control)/(mean of high control−mean of low control)] where by the low control is DMSO without stimulation and high control is DMSO with stimulation. The IC50 is defined as the concentration of test compound which produces 50% inhibition and was quantified using the 4 parameter logistic equation to fit the data.
Table 5 lists the IC50 values measured in the TNF induced HEK-Blue assay for Examples 1 to 40 of this invention.

Sequence of TNFα (P01375 77-233): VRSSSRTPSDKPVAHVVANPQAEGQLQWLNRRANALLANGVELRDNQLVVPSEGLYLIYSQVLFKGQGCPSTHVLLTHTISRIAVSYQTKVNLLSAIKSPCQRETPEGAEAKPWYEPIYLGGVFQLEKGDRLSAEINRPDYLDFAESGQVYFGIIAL

| IC50 [µM] | SMILES |
| --- | --- |
| 10 to 25 | COc1ccc(-c2ccc3nc4n(c3n2)C(c2ccccc2OC(F)F)CC4F)cn1 (single isomer, unassigned) [Example 18 (e2), 8-(2-(difluoromethoxy)phenyl)-6-fluoro-2-(6-methoxypyridin-3-yl)-7,8-dihydro-6H-pyrrolo[2′,1′:2,3]imidazo[4,5-b]pyridine] |
| 1 to 10 | CC(C)(O)c1ccc(-c2ccc3nc4n(c3n2)C(c2cc(F)ccc2C(F)(F)F)CC4F)cc1 (single isomer, unassigned) [Example 24 (e2), 2-(4-(6-fluoro-8-(5-fluoro-2-(trifluoromethyl)phenyl)-7,8-dihydro-6H-yrrolo[2′,1′:2,3]imidazo[4,5-b]pyridin-2-yl)phenyl)propan-2-ol] |
| 1 to 10 | CC(C)(O)c1ccc(-c2ccc3nc4n(c3n2)C(c2ccccc2C2CC2)CC4F)cc1 (single isomer, unassigned) [Example 21 (e2), 2-(4-(8-(2-cyclopropylphenyl)-6-fluoro-7,8-dihydro-6H-pyrrolo[2′,1′:2,3]imidazo[4,5-b]pyridin-2-yl)phenyl)propan-2-ol] |
| 1 to 10 | Cc1ccc(C)c([C@H]2CCc3nc4ccc(-c5cnn(C)c5)nc4n32)c1 [Example 40, (R)-8-(2,5-dimethylphenyl)-2-(1-methyl-1H-pyrazol-4-yl)-7,8-dihydro-6H-pyrrolo[2′,1′:2,3]imidazo[4,5-b]pyridine] |
| 1 to 10 | Cn1cc(-c2ccc3nc4n(c3n2)C(c2ccccc2OC(F)F)CC4F)cn1 (stereo not shown) [Example 19 (e3), 8-(2-(difluoromethoxy)phenyl)-6-fluoro-2-(1-methyl-1H-pyrazol-4-yl)-7,8-dihydro-6H-pyrrolo[2′,1′:2,3]imidazo[4,5-b]pyridine] |
| < 1 | COc1ccc(-c2ccc3nc4n(c3n2)C(c2ccccc2OC(F)F)CC4F)cn1 (single isomer, unassigned) [Example 18 (e1), 8-(2-(difluoromethoxy)phenyl)-6-fluoro-2-(6-methoxypyridin-3-yl)-7,8-dihydro-6H-pyrrolo[2′,1′:2,3]imidazo[4,5-b]pyridine] |
| < 1 | CC(C)(O)c1ccc(-c2ccc3nc4n(c3n2)C(c2cc(F)ccc2C(F)(F)F)CC4F)cc1 (stereo not shown) [Example 24 (e4), 2-(4-(6-fluoro-8-(5-fluoro-2-(trifluoromethyl)phenyl)-7,8-dihydro-6H-yrrolo[2′,1′:2,3]imidazo[4,5-b]pyridin-2-yl)phenyl)propan-2-ol] |
| < 1 | CC(C)(O)c1ccc(-c2ccc3nc4n(c3n2)C(c2ccccc2OC(F)(F)F)CC4F)cc1 (single isomer, unassigned) [Example 22 (e1), 2-(4-(6-fluoro-8-(2-(trifluoromethoxy)phenyl)-7,8-dihydro-6H-pyrrolo[2′,1′:2,3]imidazo[4,5-b]pyridin-2-yl)phenyl)propan-2-ol] |
| 1 to 10 | COc1ccc(-c2ccc3nc4n(c3n2)C(c2ccccc2OC(F)F)CC4)cn1 (racemic) [Example 29 (rac), 8-(2-(difluoromethoxy)phenyl)-2-(6-methoxypyridin-3-yl)-7,8-dihydro-6H-pyrrolo[2′,1′:2,3]imidazo[4,5-b]pyridine] |

The next lines start with the compound.

| SMILES | IC50 [µM] |
| --- | --- |
| CC(C)(O)c1ccc(-c2ccc3nc4n(c3n2)C(c2ccccc2C(F)(F)F)CC4O)cc1 (single isomer, unassigned) [Example 1 (e2), 2-(4-(2-Hydroxypropan-2-yl)phenyl)-8-(2-(trifluoromethyl)phenyl)-7,8-dihydro-6H-pyrrolo[2′,1′:2,3]imidazo[4,5-b]pyridin-6-ol] | 1 to 10 |
| CC(C)(O)c1ccc(-c2ccc3nc4n(c3n2)C(c2c(F)cccc2C(F)(F)F)CC4O)cc1 (single isomer, unassigned) [Example 3 (e2), 8-(2-fluoro-6-(trifluoromethyl)phenyl)-2-(4-(2-hydroxypropan-2-yl)phenyl)-7,8-dihydro-6H-pyrrolo[2′,1′:2,3]imidazo[4,5-b]pyridin-6-ol] | < 1 |
| CC(C)(O)c1ccc(-c2ccc3nc4n(c3n2)C(c2ccccc2C(F)(F)F)CC4F)cc1 (single isomer, unassigned) [Example 14 (e2), 2-(4-(6-Fluoro-8-(2-(trifluoromethyl)phenyl)-7,8-dihydro-6H-pyrrolo[2′,1′:2,3]imidazo[4,5-b]pyridin-2-yl)phenyl)propan-2-ol] | < 1 |
| CC(C)(O)c1ccc(-c2ccc3nc4n(c3n2)C(c2ccccc2C2CC2)CC4O)cc1 (single isomer, unassigned) [Example 9 (e3), 8-(2-cyclopropylphenyl)-2-(4-(2-hydroxypropan-2-yl)phenyl)-7,8-dihydro-6H-pyrrolo[2′,1′:2,3]imidazo[4,5-b]pyridin-6-ol] | 1 to 10 |
| Cc1ccc(C)c(C2CC(O)c3nc4ccc(-c5cnc(C(C)(C)O)nc5)nc4n32)c1 (stereo not shown) [Example 5 (DM), 8-(2,5-dimethylphenyl)-2-(2-(2-hydroxypropan-2-yl)pyrimidin-5-yl)-7,8-dihydro-6H-pyrrolo[2′,1′:2,3]imidazo[4,5-b]pyridin-6-ol] | < 1 |
| Cc1ccc(C)c(C2CC(O)c3nc4ccc(-c5cnc(N6CCOCC6)nc5)nc4n32)c1 (stereo not shown) [Example 6 (DM), 8-(2,5-dimethylphenyl)-2-(2-morpholinopyrimidin-5-yl)-7,8-dihydro-6H-pyrrolo[2′,1′:2,3]imidazo[4,5-b]pyridin-6-ol] | < 1 |
| Cc1ccc(C)c(C2CC(O)c3nc4ccc(-c5ccc(C(C)(C)O)cc5)nc4n32)c1 (stereo not shown) [Example 4 (DM), 8-(2,5-dimethylphenyl)-2-(4-(2-hydroxypropan-2-yl)phenyl)-7,8-dihydro-6H-pyrrolo[2′,1′:2,3]imidazo[4,5-b]pyridin-6-ol] | < 1 |
| CC(C)(O)c1ccc(-c2ccc3nc4n(c3n2)C(c2c(F)cccc2C(F)(F)F)CC4O)cc1 (single isomer, unassigned) [Example 3 (e3), 8-(2-fluoro-6-(trifluoromethyl)phenyl)-2-(4-(2-hydroxypropan-2-yl)phenyl)-7,8-dihydro-6H-pyrrolo[2′,1′:2,3]imidazo[4,5-b]pyridin-6-ol] | < 1 |
| CC(C)(O)c1ccc(-c2ccc3nc4n(c3n2)C(c2ccccc2C(F)(F)F)CC4F)cc1 (single isomer, unassigned) [Example 14 (e4), 2-(4-(6-Fluoro-8-(2-(trifluoromethyl)phenyl)-7,8-dihydro-6H-pyrrolo[2′,1′:2,3]imidazo[4,5-b]pyridin-2-yl)phenyl)propan-2-ol] | < 1 |
| CC(C)(O)c1ccc(-c2ccc3nc4n(c3n2)C(c2ccccc2C2CC2)CC4O)cc1 (stereo not shown) [Example 9 (e1), 8-(2-cyclopropylphenyl)-2-(4-(2-hydroxypropan-2-yl)phenyl)-7,8-dihydro-6H-pyrrolo[2′,1′:2,3]imidazo[4,5-b]pyridin-6-ol] | < 1 |
| CC(C)(O)c1ccc(-c2ccc3nc4n(c3n2)C(c2c(F)cccc2C(F)(F)F)CC4O)cc1 (single isomer, unassigned) [Example 3 (e1), 8-(2-fluoro-6-(trifluoromethyl)phenyl)-2-(4-(2-hydroxypropan-2-yl)phenyl)-7,8-dihydro-6H-pyrrolo[2′,1′:2,3]imidazo[4,5-b]pyridin-6-ol] | < 1 |
| COc1ccccc1C1CC(O)c2nc3ccc(-c4ccc(C(C)(C)O)cc4)nc3n21 (single isomer, unassigned) [Example 12 (e4), 2-(4-(2-hydroxypropan-2-yl)phenyl)-8-(2-methoxyphenyl)-7,8-dihydro-6H-pyrrolo[2′,1′:2,3]imidazo[4,5-b]pyridin-6-ol] | 1 to 10 |
| CC(C)(O)c1ccc(-c2ccc3nc4n(c3n2)C(c2ccccc2C(F)(F)F)CC4F)cc1 (single isomer, unassigned) [Example 14 (e3), 2-(4-(6-Fluoro-8-(2-(trifluoromethyl)phenyl)-7,8-dihydro-6H-pyrrolo[2′,1′:2,3]imidazo[4,5-b]pyridin-2-yl)phenyl)propan-2-ol] | 1 to 10 |
| CC(C)(O)c1ccc(-c2ccc3nc4n(c3n2)C(c2ccccc2OC(F)F)CC4O)cc1 (single isomer, unassigned) [Example 2 (e3), 8-(2-(difluoromethoxy)phenyl)-2-(4-(2-hydroxypropan-2-yl)phenyl)-7,8-dihydro-6H-pyrrolo[2′,1′:2,3]imidazo[4,5-b]pyridin-6-ol] | 1 to 10 |
| CC(C)(O)c1ncc(-c2ccc3nc4n(c3n2)C(c2ccccc2OC(F)F)CC4F)cn1 (stereo not shown) [Example 16 (e2), 2-(5-(8-(2-(difluoromethoxy)phenyl)-6-fluoro-7,8-dihydro-6H-pyrrolo[2′,1′:2,3]imidazo[4,5-b]pyridin-2-yl)pyrimidin-2-yl)propan-2-ol] | < 1 |
| CC(C)(O)c1ccc(-c2ccc3nc4n(c3n2)C(c2cc(F)ccc2C(F)(F)F)CC4O)cc1 (single isomer, unassigned) [Example 13 (e2), 8-(5-fluoro-2-(trifluoromethyl)phenyl)-2-(4-(2-hydroxypropan-2-yl)phenyl)-7,8-dihydro-6H-pyrrolo[2′,1′:2,3]imidazo[4,5-b]pyridin-6-ol] | 1 to 10 |
